PubChem BioAssay (NCI)
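Values below derive from 48-hour exposures of cells grown in 96-well plates, with endpoints linearly interpolated between the two concentrations bracketing the appropriate inhibition level. At the TGI there is no net growth.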

What was measured:
Assay in all cases: inhibition of tumour cell growth, NCI panel, 48 h
[1] = system: 786-0 renal
[2] = system: A498 renal
[3] = system: A549 NSCLC
[4] = system: ACHN renal
[5] = system: CAKI-1 renal
[6] = system: DMS 114 small cell lung
[7] = system: DMS 273 small cell lung
[8] = system: EKVX NSCLC
[9] = system: HCC-2998 colon
[10] = system: HCT-116 colon
[11] = system: HCT-15 colon
[12] = system: HL-60(TB) leukemia
[13] = system: HOP-62 NSCLC
[14] = system: HT29 colon
[15] = system: IGROV1 ovarian
[16] = system: K-562 leukemia
[17] = system: KM12 colon
[18] = system: KM20L2 colon
[19] = system: LOX IMVI melanoma
[20] = system: LXFL 529 NSCLC
[21] = system: M14 melanoma
[22] = system: M19-MEL melanoma
[23] = system: MALME-3M melanoma
[24] = system: MOLT-4 leukemia
[25] = system: NCI-H226 lung
[26] = system: NCI-H460 lung
[27] = system: NCI-H522 lung
[28] = system: OVCAR-3 ovarian
[29] = system: OVCAR-4 ovarian
[30] = system: OVCAR-5 ovarian
[31] = system: OVCAR-8 ovarian
[32] = system: RPMI-8226 leukemia
[33] = system: RXF 393 renal
[34] = system: RXF-631 renal
[35] = system: SF-268 CNS
[36] = system: SF-295 CNS
[37] = system: SF-539 CNS
[38] = system: SK-MEL-2 melanoma
[39] = system: SK-MEL-28 melanoma
[40] = system: SK-MEL-5 melanoma
[41] = system: SK-OV-3 ovarian
[42] = system: SN12C renal
[43] = system: SNB-19 CNS
[44] = system: SNB-75 CNS
[45] = system: SR leukemia
[46] = system: SW-620 colon
[47] = system: U251 CNS
[48] = system: UACC-257 melanoma
[49] = system: UACC-62 melanoma
[50] = system: UO-31 renal
[51] = system: CCRF-CEM leukemia
[52] = system: DLD-1 colon
[53] = system: HOP-92 NSCLC
[54] = system: XF 498 CNS
[55] = system: COLO 205 colon
[56] = system: HOP-18 NSCLC
[57] = system: NCI-H23 lung
[58] = system: SNB-78 CNS
[59] = system: TK-10 renal
[60] = system: BT-549 breast
[61] = system: DU-145 prostate
[62] = system: HS 578T breast
[63] = system: MCF7 breast
[64] = system: MDA-MB-231 breast
[65] = system: MDA-MB-435
[66] = system: MDA-N
[67] = system: NCI/ADR-RES ovarian
[68] = system: PC-3 prostate
[69] = system: T-47D breast

O=C1CCCN(c2ccccc2)N1
TGI [1]: > 100 µM | TGI [2]: > 100 µM | TGI [3]: > 100 µM | TGI [4]: > 100 µM | TGI [5]: > 100 µM | TGI [6]: > 100 µM | TGI [7]: > 100 µM | TGI [8]: > 100 µM | TGI [9]: > 100 µM | TGI [10]: > 100 µM | TGI [11]: > 100 µM | TGI [12]: > 100 µM | TGI [13]: > 100 µM | TGI [14]: > 100 µM | TGI [15]: > 100 µM | TGI [16]: > 100 µM | TGI [17]: > 100 µM | TGI [18]: > 100 µM | TGI [19]: > 100 µM | TGI [20]: > 100 µM | TGI [21]: > 100 µM | TGI [22]: > 100 µM | TGI [23]: > 100 µM | TGI [24]: > 100 µM | TGI [25]: > 100 µM | TGI [26]: > 100 µM | TGI [27]: > 100 µM | TGI [28]: > 100 µM | TGI [29]: > 100 µM | TGI [30]: > 100 µM | TGI [31]: > 100 µM | TGI [32]: > 100 µM | TGI [33]: > 100 µM | TGI [34]: > 100 µM | TGI [35]: > 100 µM | TGI [36]: > 100 µM | TGI [37]: > 100 µM | TGI [38]: > 100 µM | TGI [39]: > 100 µM | TGI [40]: > 100 µM | TGI [41]: > 100 µM | TGI [42]: > 100 µM | TGI [43]: > 100 µM | TGI [44]: > 100 µM | TGI [45]: > 100 µM | TGI [46]: > 100 µM | TGI [47]: > 100 µM | TGI [48]: > 100 µM | TGI [49]: > 100 µM | TGI [50]: > 100 µM

COC1(C)CC2N(C(=O)c3ccccc3)N=C(c3ccccc3)CC2(C)O1 (stereo not given)
TGI [1]: > 100 µM | TGI [2]: > 100 µM | TGI [3]: > 100 µM | TGI [4]: > 100 µM | TGI [5]: > 100 µM | TGI [51]: > 100 µM | TGI [52]: > 100 µM | TGI [6]: > 100 µM | TGI [9]: > 100 µM | TGI [10]: > 100 µM | TGI [11]: > 100 µM | TGI [12]: > 100 µM | TGI [13]: > 100 µM | TGI [53]: > 100 µM | TGI [14]: > 100 µM | TGI [15]: > 100 µM | TGI [16]: > 100 µM | TGI [17]: > 100 µM | TGI [18]: > 100 µM | TGI [19]: > 100 µM | TGI [20]: > 100 µM | TGI [21]: > 100 µM | TGI [23]: > 100 µM | TGI [24]: > 100 µM | TGI [25]: > 100 µM | TGI [26]: > 100 µM | TGI [27]: > 100 µM | TGI [28]: > 100 µM | TGI [29]: > 100 µM | TGI [30]: > 100 µM | TGI [31]: > 100 µM | TGI [32]: > 100 µM | TGI [34]: > 100 µM | TGI [35]: > 100 µM | TGI [36]: > 100 µM | TGI [37]: > 100 µM | TGI [38]: > 100 µM | TGI [40]: > 100 µM | TGI [41]: > 100 µM | TGI [42]: > 100 µM | TGI [43]: > 100 µM | TGI [44]: > 100 µM | TGI [46]: > 100 µM | TGI [48]: > 100 µM | TGI [49]: > 100 µM | TGI [50]: > 100 µM | TGI [54]: > 100 µM

O=C1CC2(C[C@@H]3CCCCCCCCC[C@@H](C3)C2)N1 (stereo not given in full)
TGI [1]: 30.4 µM | TGI [2]: 30.9 µM | TGI [3]: 38.4 µM | TGI [4]: 29.3 µM | TGI [5]: 25.4 µM | TGI [51]: 37.6 µM | TGI [55]: 30.7 µM | TGI [6]: 31.6 µM | TGI [7]: 25.3 µM | TGI [8]: 28.2 µM | TGI [9]: 31.9 µM | TGI [10]: 33.6 µM | TGI [11]: 34 µM | TGI [12]: 38.8 µM | TGI [56]: 22.6 µM | TGI [13]: 32.8 µM | TGI [53]: 23 µM | TGI [14]: 26.9 µM | TGI [15]: 27.9 µM | TGI [16]: 55.1 µM | TGI [17]: 34.6 µM | TGI [18]: 31.4 µM | TGI [20]: 29.7 µM | TGI [21]: 28.8 µM | TGI [22]: 28.8 µM | TGI [23]: 24.5 µM | TGI [24]: 37.4 µM | TGI [25]: 30.8 µM | TGI [57]: 31.3 µM | TGI [26]: 38.4 µM | TGI [27]: 33.1 µM | TGI [29]: 36.3 µM | TGI [30]: 29.6 µM | TGI [31]: 33.5 µM | TGI [32]: 51.1 µM | TGI [33]: 30.9 µM | TGI [35]: 39.8 µM | TGI [36]: 31.2 µM | TGI [37]: 30.4 µM | TGI [38]: 37.7 µM | TGI [39]: 31.5 µM | TGI [40]: 30.6 µM | TGI [41]: 28.4 µM | TGI [42]: 30.8 µM | TGI [43]: 34.6 µM | TGI [44]: 20.6 µM | TGI [58]: 49.6 µM | TGI [45]: 30.7 µM | TGI [46]: 33.8 µM | TGI [59]: 31.2 µM | TGI [47]: 30.3 µM | TGI [48]: 25.1 µM | TGI [49]: 30.3 µM | TGI [50]: 27.8 µM | TGI [54]: 24.9 µM

C=CC(=O)c1ccc2c(c1)OCCOCCOCCOCCOCCO2
TGI [1]: 31.1 µM | TGI [2]: > 100 µM | TGI [3]: > 100 µM | TGI [4]: 31.9 µM | TGI [60]: 37.2 µM | TGI [5]: 68 µM | TGI [51]: > 100 µM | TGI [55]: 33 µM | TGI [52]: 30.1 µM | TGI [6]: 41 µM | TGI [7]: 29.1 µM | TGI [61]: > 100 µM | TGI [8]: 57.9 µM | TGI [9]: > 100 µM | TGI [10]: > 56.2 µM | TGI [11]: 39.2 µM | TGI [12]: > 100 µM | TGI [56]: 30.2 µM | TGI [13]: > 100 µM | TGI [53]: 33.5 µM | TGI [62]: > 100 µM | TGI [14]: > 56.5 µM | TGI [15]: > 100 µM | TGI [16]: > 100 µM | TGI [17]: > 100 µM | TGI [18]: > 100 µM | TGI [19]: 35.6 µM | TGI [20]: 30.8 µM | TGI [21]: 41.6 µM | TGI [22]: 32.2 µM | TGI [23]: 33.6 µM | TGI [63]: 32.4 µM | TGI [64]: 36 µM | TGI [65]: 43.2 µM | TGI [66]: > 100 µM | TGI [24]: > 100 µM | TGI [25]: > 100 µM | TGI [57]: > 64.2 µM | TGI [26]: > 100 µM | TGI [27]: 24.7 µM | TGI [67]: 54 µM | TGI [28]: 35.4 µM | TGI [29]: 36.3 µM | TGI [30]: > 100 µM | TGI [31]: 41.9 µM | TGI [68]: 76.5 µM | TGI [32]: > 100 µM | TGI [33]: 32.3 µM | TGI [35]: > 92.8 µM | TGI [36]: > 100 µM | TGI [37]: 33.2 µM | TGI [38]: > 79.7 µM | TGI [39]: 34 µM | TGI [40]: > 100 µM | TGI [41]: > 100 µM | TGI [42]: 52.8 µM | TGI [43]: > 100 µM | TGI [44]: > 91.6 µM | TGI [58]: 35.2 µM | TGI [45]: > 100 µM | TGI [46]: 35.2 µM | TGI [69]: 59.4 µM | TGI [59]: 31.1 µM | TGI [47]: > 100 µM | TGI [48]: 35.6 µM | TGI [49]: 92 µM | TGI [50]: > 58 µM | TGI [54]: 28.7 µM
